According to ChEMBL document CHEMBL4819048, “IDO1 and TDO inhibitory evaluation of analogues of the marine pyrroloiminoquinone alkaloids: Wakayin and Tsitsikammamines” (Bioorg Med Chem Lett, 2021):

How the values were obtained:
Format in all cases: cell-based
[1] = target: Tryptophan 2,3-dioxygenase (Homo sapiens) (UniProt P48775); assay: Inhibition of human TDO expressed in HEK293-EBNA cells assessed as reduction in kynurenine formation using tryptophan as substrate at 25 uM incubated for 24 hrs by HPLC analysis relative to control
[2] = Cytotoxicity against human HEK293-EBNA cells assessed as cell viability at 6.25 uM by MTS/PMS assay; settings: read-out: Activity
[3] = Cytotoxicity against human HEK293-EBNA cells assessed as cell viability at 3.12 uM by MTS/PMS assay; settings: read-out: Activity
[4] = target: Indoleamine 2,3-dioxygenase 1 (Homo sapiens) (UniProt P14902); assay: Inhibition of human IDO1 expressed in HEK293-EBNA cells assessed as reduction in kynurenine formation using tryptophan as substrate at 6.25 uM incubated for 24 hrs by HPLC analysis relative to control
[5] = target: Tryptophan 2,3-dioxygenase (Homo sapiens) (UniProt P48775); assay: Inhibition of human TDO expressed in HEK293-EBNA cells assessed as reduction in kynurenine formation using tryptophan as substrate at 6.25 uM incubated for 24 hrs by HPLC analysis relative to control
[6] = target: Indoleamine 2,3-dioxygenase 1 (Homo sapiens) (UniProt P14902); assay: Inhibition of human IDO1 expressed in HEK293-EBNA cells assessed as reduction in kynurenine formation using tryptophan as substrate at 12.5 uM incubated for 24 hrs by HPLC analysis relative to control
[7] = Cytotoxicity against human HEK293-EBNA cells assessed as cell viability at 12.5 uM by MTS/PMS assay; settings: read-out: Activity
[8] = target: Tryptophan 2,3-dioxygenase (Homo sapiens) (UniProt P48775); assay: Inhibition of human TDO expressed in HEK293-EBNA cells assessed as reduction in kynurenine formation using tryptophan as substrate at 3.12 uM incubated for 24 hrs by HPLC analysis relative to control
[9] = Cytotoxicity against human HEK293-EBNA cells assessed as cell viability at 25 uM by MTS/PMS assay; settings: read-out: Activity
[10] = target: Indoleamine 2,3-dioxygenase 1 (Homo sapiens) (UniProt P14902); assay: Inhibition of human IDO1 expressed in HEK293-EBNA assessed as reduction in kynurenine formation using tryptophan as substrate at 3.12 uM incubated for 24 hrs by HPLC analysis relative to control
[11] = target: Tryptophan 2,3-dioxygenase (Homo sapiens) (UniProt P48775); assay: Inhibition of human TDO expressed in HEK293-EBNA cells assessed as reduction in kynurenine formation using tryptophan as substrate at 12.5 uM incubated for 24 hrs by HPLC analysis relative to control
[12] = target: Indoleamine 2,3-dioxygenase 1 (Homo sapiens) (UniProt P14902); assay: Inhibition of human IDO1 expressed in HEK293-EBNA cells assessed as reduction in kynurenine formation using tryptophan as substrate at 25 uM incubated for 24 hrs by HPLC analysis relative to control

Sequence of Indoleamine 2,3-dioxygenase 1 (Homo sapiens) (P14902 whole entry, looked up): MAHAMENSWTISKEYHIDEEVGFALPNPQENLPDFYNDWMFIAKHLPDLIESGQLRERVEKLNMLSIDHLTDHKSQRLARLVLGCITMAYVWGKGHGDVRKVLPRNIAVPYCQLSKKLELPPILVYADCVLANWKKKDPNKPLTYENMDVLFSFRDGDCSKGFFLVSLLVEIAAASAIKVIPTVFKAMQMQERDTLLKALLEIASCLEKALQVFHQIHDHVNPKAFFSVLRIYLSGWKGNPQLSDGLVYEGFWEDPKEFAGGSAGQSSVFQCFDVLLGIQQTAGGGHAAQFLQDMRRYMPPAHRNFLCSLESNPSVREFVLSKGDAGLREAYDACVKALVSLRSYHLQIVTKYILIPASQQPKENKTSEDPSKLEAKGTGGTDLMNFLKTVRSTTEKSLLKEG
Sequence of Tryptophan 2,3-dioxygenase (Homo sapiens) (P48775 whole entry, looked up): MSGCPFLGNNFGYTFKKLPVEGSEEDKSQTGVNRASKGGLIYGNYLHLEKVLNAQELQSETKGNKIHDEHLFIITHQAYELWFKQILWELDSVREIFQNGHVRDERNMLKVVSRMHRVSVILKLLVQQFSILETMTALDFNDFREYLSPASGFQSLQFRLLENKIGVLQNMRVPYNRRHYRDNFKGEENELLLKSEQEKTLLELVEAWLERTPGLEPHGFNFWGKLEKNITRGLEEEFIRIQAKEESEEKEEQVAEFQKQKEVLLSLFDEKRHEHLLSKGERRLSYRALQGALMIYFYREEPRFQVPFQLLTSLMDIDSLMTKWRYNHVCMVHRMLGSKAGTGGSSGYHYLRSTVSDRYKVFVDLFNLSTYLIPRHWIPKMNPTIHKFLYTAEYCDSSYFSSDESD

SMILES | inhibition [1] | viability at 6.25 µM [2] | viability at 3.12 µM [3] | inhibition [4] | inhibition [5] | inhibition [6] | viability at 12.5 µM [7] | inhibition [8] | viability at 25 µM [9] | inhibition [10] | inhibition [11] | inhibition [12]
Cc1ccc(S(=O)(=O)n2cc3c4c2C(=O)c2n[nH]cc2C4=NCC3)cc1 | 7% | 91% | 92% | 9% | 14% | 9% | 97% | 12% | 91% | 10% | 13% | 6%
Cc1ccc(S(=O)(=O)n2ccc3c2C(=O)c2[nH]c(C(=O)c4ccccc4)c(C(=O)c4ccccc4)c2C3=O)cc1 | 28% | 125% | 99% | 58% | 27% | 62% | 102% | 15% | 111% | 52% | 55% | 61%
Cc1ccc(S(=O)(=O)n2cc3c4c2C(=O)c2c(-c5ccccc5)n[nH]c2C4=NCC3)cc1 | 21% | 126% | 91% | 19% | 13% | 22% | 123% | 10% | 96% | 14% | 18% | 23%
Cc1ccc(S(=O)(=O)n2cc3c4c2C(=O)c2[nH]nc(N5C(=O)C(O)c6ccccc65)c2C4=NCC3)cc1 (centres undefined) | 27% | 107% | 104% | 3% | 5% | 1% | 84% | -7% | 31% | 1% | 6% | 14%
Cc1ccc(S(=O)(=O)n2ccc3c2C(=O)c2c(c(-c4c[nH]c5ccccc45)cn2C)C3=O)cc1 | -3% | 96% | 98% | 12% | 3% | 21% | 96% | 2% | 88% | 8% | 0% | 27%
Cc1ccc(S(=O)(=O)n2ccc3c2C(=O)c2c(-c4c[nH]c5ccccc45)cn(C)c2C3=O)cc1 | -8% | 98% | 100% | 20% | 2% | 26% | 97% | 2% | 95% | 12% | -1% | 28%
Cc1ccc(S(=O)(=O)n2cc3c4c2C(=O)c2cn[nH]c2C4=NCC3)cc1 | 15% | 106% | 87% | 12% | 19% | 15% | 110% | 15% | 93% | 10% | 23% | 11%
Cc1ccc(S(=O)(=O)n2ccc3c2C(=O)C=C(NCCc2c[nH]c4ccccc24)C3=O)cc1 | 67% | 69% | 75% | 28% | 12% | 38% | 56% | 5% | 26% | 23% | 31% | 39%
Cc1ccc(S(=O)(=O)n2cc3c4c2C(=O)c2[nH]nc(-c5ccccc5)c2C4=NCC3)cc1 | -10% | 95% | 91% | 12% | 5% | 16% | 79% | 5% | 78% | 10% | 2% | 18%
Cc1ccc(S(=O)(=O)n2ccc3c2C(=O)c2[nH]cc4c2C3=NCC4)cc1 | 3% | 98% | 107% | -3% | -7% | -4% | 110% | -7% | 115% | 0% | -6% | -3%
O=C1c2[nH]cc3c2C(=NCC3)c2c(-c3ccccc3)n[nH]c21 | 5% | 93% | 93% | 4% | 5% | 5% | 94% | 3% | 84% | 4% | 6% | 5%
Cc1ccc(S(=O)(=O)n2cc3c4c2C(=O)c2c(cnn2C)C4=NCC3)cc1 | 35% | 89% | 93% | 16% | 18% | 23% | 77% | 3% | 78% | 11% | 21% | 36%
Cc1ccc(S(=O)(=O)n2ccc3c2C(=O)C(NCCc2c[nH]c4ccccc24)=CC3=O)cc1 | 0% | 98% | 98% | 9% | -3% | 13% | 99% | -8% | 84% | 2% | 0% | 11%
O=C1c2c[nH]nc2C2=NCCc3c[nH]c1c32 | 9% | 92% | 93% | 2% | 8% | 0% | 91% | 6% | 90% | 2% | 8% | -1%
Cc1ccc(S(=O)(=O)n2ccc3c2C(=O)c2c4c(cn2S(=O)(=O)c2ccc(C)cc2)CCN=C34)cc1 |  | 88% | 87% |  |  |  | 85% |  | 67% |  |  | 
Cc1ccc(S(=O)(=O)n2ccc3c2C(=O)c2[nH]c(C(=O)c4c[nH]c5ccccc45)c(C(=O)c4c[nH]c5ccccc45)c2C3=O)cc1 | -9% | 81% | 87% | 22% | 1% | 25% | 82% | -1% | 75% | 16% | -2% | 24%
